Measurements taken from patent US20010003780A1, “Retinoid antagonists and uses thereof” (priority 1997, published 2001).

System: trauma-induced caecal adhesion in rats
Test: trauma-induced caecal adhesion model in rats
Type: in vivo, rat
Method: Models of peritoneal adhesions induced by surgical trauma have been used to predict the clinical activity of a number of marketed anti-adhesion barrier devices. One such model is the trauma-induced caecal adhesion model in rats. A representative retinoid antagonist compound of the present invention, 4-{{(E)-(5,6-dihydro-5,5-dimethyl-8-phenyl)-2-naphthalenyl]vinyl]benzoic acid of the formula [drawing 49]
Adult female Wistar rats were used in our studies. The trauma induction was carried out using aseptic conditions in animals anesthetized with a mixture of Ketamine (100 mg/kg) and Rompun (10 mg/kg) given IP. A 2 cm midline abdominal incision was made and the caecum was exteriorized. Both sides of the caecum were abraded with a dry gauze until there was evidence of punctate bleeding. After replacing the organ in the abdominal cavity, the incision was closed. Trauma to the caecum produces fibrous scar tissue or adhesions to adjacent organs, peritoneal wall, or the omentum. Animals were treated with test compound orally or by intravenous injection or intra-abdominally by direct instillation into the peritoneal cavity. Oral treatments were administered once daily for up to 7 days. Intra-abdominal treatments were applied once post-trauma and just prior to wound closure.
On the seventh postoperative day, the animals were sacrificed and the peritoneal cavity was exposed and examined for adhesions. Three criteria that were used to evaluate the adhesions are: severity of the adhesions, extent or area of the ceacum involved with adhesions and the number of adhesions formed in each animal. Statistical analysis of the data was performed using students' T test. The following scoring system was used:
The test compound described above administered by the intra-abdominal route was compared to some other representative retinoid antagonists of the present invention. A single dose of compound in 3 ml volume was instilled over the traumatized caecum and abdominal cavity prior to closing the incision. Seven days later the animals were sacrificed and the abdominal cavity was examined for adhesions to the caecum.

[1] = administered orally for 7 days, 10 and 15 mg/kg, compared to the vehicle control (FIG. 1)

Row | SMILES | effect on trauma induced adhesions (number, severity and extent of caecal adhesions) (orally administered, at twice the dose of the test compound (Table 1)) | number of adhesions per animal [1] | severity of adhesions per animal [1] | severity of caecal adhesions (single intra-abdominal application at 5 mg in 3 ml, examined seven days later (Table 2)) | number of adhesions formed (single intra-abdominal application at 5 mg in 3 ml, examined seven days later, compared to the vehicle control (Table 2))
1 | CC1=C(/C=C/C(C)=C/C=C/C(C)=C/C(=O)O)C(C)(C)CCC1 [All-trans retinoic acid, all-trans retinoic acid, reference compound] | no significant effect |  |  |  | 
2 | CC1(C)CC=C(c2ccccc2)c2cc(/C=C/c3ccc(C(=O)O)cc3)ccc21 [compound A, 4-{{(E)-(5,6-dihydro-5,5-dimethyl-8-phenyl)-2-naphthalenyl]vinyl]benzoic acid] |  | significantly reduced | significantly reduced | effectively reduced | significantly reduced
